Data published in patent US11066392B2, “Inhibitors of indoleamine 2,3-dioxygenase and methods of their use” (BRISTOL-MYERS SQUIBB COMPANY, priority 2017, dated 2021).
Like-named read-outs stand apart in the source and are kept apart here.

Molecular target: indoleamine 2,3-dioxygenase (IDO) (Homo sapiens, UniProt P14902)
Experiment: HeLa cell-based indoleamine 2,3-dioxygenase (IDO) assay (kynurenine production, IFNγ-stimulated)
Conditions: HeLa cells
[1] = potency class, read-out: Patent Potency Hela IC50 A < 10 nM, B > 10 nM, C > 100 nM
[2] = IFNγ 25 ng/mL, 48 hour incubation, read-out: IDO Hela IC50

Sequence of indoleamine 2,3-dioxygenase (IDO) (P14902 whole entry): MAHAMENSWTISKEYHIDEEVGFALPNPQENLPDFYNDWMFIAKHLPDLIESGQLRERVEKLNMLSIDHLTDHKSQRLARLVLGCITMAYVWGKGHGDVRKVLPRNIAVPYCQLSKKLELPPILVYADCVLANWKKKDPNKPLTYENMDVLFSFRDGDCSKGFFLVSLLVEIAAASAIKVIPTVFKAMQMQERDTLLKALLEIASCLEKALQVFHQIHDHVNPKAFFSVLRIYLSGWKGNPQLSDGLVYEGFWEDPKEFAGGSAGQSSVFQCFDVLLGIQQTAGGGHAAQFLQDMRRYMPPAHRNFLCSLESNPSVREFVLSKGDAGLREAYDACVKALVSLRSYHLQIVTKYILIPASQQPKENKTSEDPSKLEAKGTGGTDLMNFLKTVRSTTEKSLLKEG

Row | SMILES | IC50 [1] | IC50 [2]
1 | CCC(NC(=O)c1ccc(OC)nc1)C1CCC(c2cccc(OC(F)F)n2)CC1 (single isomer, unassigned) [Example 48b, N-(1-(4-(6-(difluoromethoxy)pyridin-2-yl)cyclohexyl)propyl)-6-methoxynicotinamide] | > 100 nM | –
2 | CCC(NC(=O)c1ccc(OC)nc1)C1CCC(c2ccnc(F)c2C)CC1 (mixture of isomers) [Example 55, (+/−)-Cis and trans-N-(1-(4-(2-fluoro-3-methylpyridin-4-yl)cyclohexyl)propyl)-6-methoxynicotinamide] | < 10 nM | –
3 | CC[C@@H](NC(=O)c1ccc(OC)nc1)[C@H]1CC[C@@H](c2ccnc3c(F)cccc32)CC1 (single isomer, unassigned) [Example 59d, N-(1-(4-(8-fluoroquinolin-4-yl)cyclohexyl)propyl)-6-methoxynicotinamide] | – | 110 nM
4 | CCC(NC(=O)c1cnc(OC)nc1)C1CCC(c2ccnc3c(F)cc(F)cc23)CC1 (single isomer, unassigned) [Example 58b] | – | 500 nM
5 | CCC(NC(=O)c1ccc(OC)nc1)C1CCC(c2ccnc3ccc(C(F)(F)F)cc23)CC1 (single isomer, unassigned) [Example 11a, 6-Methoxy-N-(1-((1s,4s)-4-(6-(trifluoromethyl)quinolin-4-yl)cyclohexyl)propyl)nicotinamide] | – | 100 nM
6 | CCC(NC(=O)c1ccc(OC)nc1)[C@H]1CC[C@@H](c2cc(C)ccn2)CC1 (single isomer, unassigned) [Example 45a, (±)-6-methoxy-N-(1-(4-(4-methylpyridin-2-yl)cyclohexyl)propyl)nicotinamide] | – | 220 nM
7 | COc1ccc(C(=O)N[C@H](CC2(C)COC2)[C@H]2CC[C@@H](c3ccnc4ccc(C(F)(F)F)cc43)CC2)cn1 (single isomer, unassigned) [Example 17a, 6-Methoxy-N-(2-(3-methyloxetan-3-yl)-1-(4-(6-(trifluoromethyl)quinolin-4-yl)cyclohexyl)ethyl)nicotinamide] | – | 30 nM
8 | CC[C@@H](NC(=O)c1ccc(OC)nc1)[C@H]1CC[C@@H](c2ccnc3ncccc32)CC1 (single isomer, unassigned) [Example 53c, N-(1-(4-(1,8-naphthyridin-4-yl)cyclohexyl)propyl)-6-methoxynicotinamide] | > 100 nM | –
9 | COC[C@H](NC(=O)c1ccc(OC)nc1)[C@H]1CC[C@@H](c2ccnc(OC)c2C(F)F)CC1 (single isomer, unassigned) [Example 51d, N-(1-(4-(3-(difluoromethyl)-2-methoxypyridin-4-yl)cyclohexyl)-2-methoxyethyl)-6-methoxynicotinamide] | – | 100 nM
10 | CCC(NC(=O)c1ccc(OC)nc1)C1CCC(c2ccnc(OC)c2C(F)F)CC1 (single isomer, unassigned) [Example 24a, N-(1-((1s,4s)-4-(3-(Difluoromethyl)-2-methoxypyridin-4-yl)cyclohexyl)propyl)-6-methoxynicotinamide] | < 10 nM | –
11 | CCC(NC(=O)c1ccc(OC)nc1)C1CCC(c2cccc(C)n2)CC1 (single isomer, unassigned) [Example 46c, 6-methoxy-N-(1-(4-(6-methylpyridin-2-yl)cyclohexyl)propyl)nicotinamide] | > 100 nM | –
12 | CCC(NC(=O)c1ccc(OC)nc1)C1CCC(c2ccnc(OC(F)F)c2)CC1 (single isomer, unassigned) [Example 30b, N-(1-(4-(2-(Difluoromethoxy)pyridin-4-yl)cyclohexyl)propyl)-6-methoxynicotinamide] | – | 20 nM
13 | CC[C@@H](NC(=O)c1cnc(OC)nc1)[C@H]1CC[C@@H](c2ccnc3c(F)cccc32)CC1 (single isomer, unassigned) [Example 60d, N-(1-(4-(8-fluoroquinolin-4-yl)cyclohexyl)propyl)-2-methoxypyrimidine-5-carboxamide] | – | 170 nM
14 | CCOC[C@@H](NC(=O)c1ccc(OC)nc1)[C@H]1CC[C@@H](c2ccnc3ccc(C(F)(F)F)cc32)CC1 (single isomer, unassigned) [Example 13b, N-(2-Ethoxy-1-(4-(6-(trifluoromethyl)quinolin-4-yl)cyclohexyl)ethyl)-6-methoxynicotinamide] | < 10 nM | –
15 | CCC(NC(=O)c1cnc(OC)nc1)C1CCC(c2ccnc3c(F)cc(F)cc23)CC1 (single isomer, unassigned) [Example 58d] | < 10 nM | –
16 | CCC(NC(=O)c1ccc(OC)nc1)C1CCC(c2cccc(OC(F)F)n2)CC1 (single isomer, unassigned) [Example 48a, N-(1-(4-(6-(difluoromethoxy)pyridin-2-yl)cyclohexyl)propyl)-6-methoxynicotinamide] | – | 360 nM
17 | CCC(NC(=O)c1ccc(OC)nc1)C1CCC(c2cccc(=O)n2C)CC1 (single isomer, unassigned) [Example 32a, 6-Methoxy-N-(1-(4-(1-methyl-6-oxo-1,6-dihydropyridin-2-yl)cyclohexyl)propyl)nicotinamide] | > 100 nM | –

Row | SMILES | IC50 [1] | IC50 [2]
18 | COC[C@H](NC(=O)c1ccc(OC)nc1)[C@H]1CC[C@@H](c2ccnc(OC)c2C(F)F)CC1 (single isomer, unassigned) [Example 51c, N-(1-(4-(3-(difluoromethyl)-2-methoxypyridin-4-yl)cyclohexyl)-2-methoxyethyl)-6-methoxynicotinamide] | – | 220 nM
19 | CCC(NC(=O)c1ccc(OC)nc1)[C@H]1CC[C@@H](c2ccnc3c(OC)cc(C(F)(F)F)cc32)CC1 (mixture of isomers) [Example 44, (±)-6-methoxy-N-(1-((cis)-4-(8-methoxy-6-(trifluoromethyl)quinolin-4-yl)cyclohexyl)propyl)nicotinamide] | – | 10 nM
20 | CCC(NC(=O)c1ccc(OC)nc1)C1CCC(c2cccc(OC(F)F)n2)CC1 (single isomer, unassigned) [Example 48d, N-(1-(4-(6-(difluoromethoxy)pyridin-2-yl)cyclohexyl)propyl)-6-methoxynicotinamide] | > 100 nM | –
21 | CC[C@@H](NC(=O)c1cnc(OC)nc1)[C@H]1CC[C@@H](c2ccnc3c(F)cccc32)CC1 (single isomer, unassigned) [Example 60a, N-(1-(4-(8-fluoroquinolin-4-yl)cyclohexyl)propyl)-2-methoxypyrimidine-5-carboxamide] | – | 820 nM
22 | CCC(NC(=O)c1ccc(OC)nc1)C1CCC(c2cccc(C(F)(F)F)n2)CC1 (single isomer, unassigned) [Example 47b, 6-methoxy-N-(1-(4-(6-(trifluoromethyl)pyridin-2-yl)cyclohexyl)propyl)nicotinamide] | > 100 nM | –
23 | COc1ccc(C(=O)NC(C)C2(O)CCC(c3ccnc4ccc(F)cc34)CC2)cn1 (single isomer, unassigned) [Example 62b, N-(1-((1r,4r)-4-(6-fluoroquinolin-4-yl)-1-hydroxycyclohexyl)ethyl)-6-methoxynicotinamide] | – | 20 nM
24 | CCC(NC(=O)c1ccc(OC)nc1)C1CCC(c2cccc(C)n2)CC1 (single isomer, unassigned) [Example 46b, 6-methoxy-N-(1-(4-(6-methylpyridin-2-yl)cyclohexyl)propyl)nicotinamide] | > 100 nM | –
25 | CCC(NC(=O)c1ccc(OC)nc1)C1CCC(c2ccnc(OC)c2C)CC1 (single isomer, unassigned) [Example 28b, 6-Methoxy-N-(1-((1s,4s)-4-(2-methoxy-3-methylpyridin-4-yl)cyclohexyl)propyl)nicotinamide] | < 10 nM | –
26 | CCC(NC(=O)c1ccnc(N2CCOCC2)c1)C1CCC(c2ccnc(OC)c2C(F)F)CC1 (single isomer, unassigned) [Example 26b, N-(1-((1s,4s)-4-(3-(Difluoromethyl)-2-methoxypyridin-4-yl)cyclohexyl)propyl)-2-morpholinoisonicotinamide] | – | 10 nM
27 | CC[C@H](NC(=O)c1cnc(C)nc1)[C@H]1CC[C@H](c2ccnc3c(F)cccc32)CC1 (single isomer, unassigned) [Example 61c, N-(1-(4-(8-fluoroquinolin-4-yl)cyclohexyl)propyl)-2-methylpyrimidine-5-carboxamide] | > 100 nM | –
28 | CC[C@@H](NC(=O)c1cnc(OC)nc1)[C@H]1CC[C@@H](c2ccnc(OC)c2F)CC1 (single isomer, unassigned) [Example 21c, N-(1-(4-(3-Fluoro-2-methoxypyridin-4-yl)cyclohexyl)propyl)-2-methoxypyrimidine-5-carboxamide] | > 100 nM | –
29 | CCC(NC(=O)c1ccc(OC)nc1)C1CCC(c2ccnc3c(F)cc(F)cc23)CC1 (single isomer, unassigned) [Example 57d] | – | 40 nM
30 | CCC(NC(=O)c1ccc(OC)nc1)C1CCC(c2cccc(=O)n2C)CC1 (single isomer, unassigned) [Example 32c, 6-Methoxy-N-(1-(4-(1-methyl-6-oxo-1,6-dihydropyridin-2-yl)cyclohexyl)propyl)nicotinamide] | – | 740 nM
31 | CC[C@@H](NC(=O)c1ccc(OC)nc1)[C@H]1CC[C@@H](c2ccnc(F)c2C)CC1 (single isomer, unassigned) [Example 56c, N-(1-(4-(2-fluoro-3-methylpyridin-4-yl)cyclohexyl)propyl)-6-methoxynicotinamide] | – | 600 nM
32 | CCC(NC(=O)c1cnc(OC)nc1)C1CCC(c2ccnc3c(F)cc(F)cc23)CC1 (single isomer, unassigned) [Example 58c] | – | 360 nM
33 | CC[C@@H](NC(=O)c1ccc(OC)nc1)[C@H]1CC[C@@H](c2ccnc(F)c2C)CC1 (single isomer, unassigned) [Example 56b, N-(1-(4-(2-fluoro-3-methylpyridin-4-yl)cyclohexyl)propyl)-6-methoxynicotinamide] | – | 120 nM
34 | CCC(NC(=O)c1ccc(OC)nc1)C1CCC(c2cccc(C(F)(F)F)n2)CC1 (single isomer, unassigned) [Example 47c, 6-methoxy-N-(1-(4-(6-(trifluoromethyl)pyridin-2-yl)cyclohexyl)propyl)nicotinamide] | > 100 nM | –
